Experimental data taken from US8252832B2, “Kinesin inhibitors as cancer therapeutics” (Novartis AG, priority 2007, dated 2012).
Like-named read-outs stand apart in the source and are kept apart here. Marks after values point to notes of the source that are not given here.

Tests used:
K562 = assay: CellTiter-Glo, hematologic malignancy panel; type: cell-based; details: CML; for GI50: Homo sapiens
Excerpt: Identification of tumor types that are the most sensitive to the KSP inhibitors of the present invention can be accomplished using an unbiased approach that uses several cell-based assays. The assays chosen were as follows: • CellTiter-Glo®. This is an assay designed to measure ATP concentration in a cell culture, and can be correlated to cell number. Briefly CellTiter-Glo® (Promega Corporation) is a homogeneous method using the single CellTiter-Glo® reagent to detect ATP wherein ATP in the assay drives the activity of a thermostable luciferase to create a luminescent signal which can then be measured and correlated with the number of viable cells. Briefly, for adherent cells, 1,000 to 5,000 cells/well were plated in 96-well plates (100 μl/well) and let to adhere for 24 hours before being treated with drug. For non-adherent cells, 1,000 to 10,000 cells/well were plated in 96-well plates (100 μl/well) and immediately treated with drug. Drug dilutions were prepared in DMSO at 1000 times the final concentration. These dilutions were then diluted 1/100 in growth media before being added to the cells (11 μl/well) to achieve the desired final concentration. After 48 h in a 37° C. tissue culture incubator, the plates were processed for the CellTiter-Glo®assay according to the manufacturer's instructions. Protocol for a 72 hour cell proliferation assay: The 72 hour assay was performed the same way as the 48 hour assay except for the following modifications: For adherent cells, 500 to 5,000 cells/well were plated in 96-well plates (90 μl/well cell growth media) and left to adhere for 24 hours before being treated with drug. For non-adherent cells, 1,000 to 10,000 cells/well were plated in 96-well plates (90 μl/well cell growth media) and immediately treated with drug. Data values presented represent the concentration of test compound required for a 50% reduction in growth. • LDH release. The Cytotoxicity Detection KitPLUS (LDH) assay (Roche Diagnostics, Manheim, Germany) measures the amount of LDH released in the media by dying cells; LDH catalyzes the conversion of lactate into pyruvate. The enzymatic reaction is coupled to a chemical reaction that uses a tetrazolium salt to form a formazan that is red and can be detected by its absorbance at 490 nm. This assay measures the amount of cell death after drug treatment. Cells were plated at 10,000 cells/well in 96-well plates (100 μl/well). Adherent cells were let to adhere for 24 hours before being treated with drug, whereas non-adherent cells were immediately treated with drug. Drug dilutions were prepared in DMSO at 1000 times the final concentration. These dilutions were then diluted 1/100 in growth media before being added to the cells (11 μl/well) to achieve the desired final concentration. After 48 h in a 37° C. tissue culture incubator, the plates were processed for the Cytotoxicity Detection KitPLUS (LDH) assay according to the manufacturer's instructions. The media only values were subtracted from all the data points before analysis. Data values presented correspond to the compound concentration wherein LDH output is at half maximal level. • Caspase-Glo® 3/7. The Caspase-Glo® 3/7 Assay (Promega Corporation) is a homogeneous luminescent assay that measures caspase-3/7 activities. The assay provides a proluminescent caspase-3/7 DEVD-aminoluciferin substrate and a thermostable luciferase in a reagent optimized for caspase-3/7 activity, luciferase activity and cell lysis. Adding the single Caspase-Glo® 3/7 Reagent results in cell lysis, followed by caspase cleavage of the substrate. This liberates free aminoluciferin, which is consumed by the luciferase, generating a luminescent signal. The signal is proportional to caspase-3/7 activity. Data values presented correspond to the compound concentration wherein caspase 3/7 activity is at half maximal level. […]

[1] = tested on: KMS-11-luc disseminated disease; assay: KMS-11-luc disseminated disease model, tumor response and survival; type: in vivo, mouse
Description: Experiments were performed using immunodeficient SCID-Beige female mice approximately 7-8 weeks old (Charles River Laboratories, Wilmington, Mass.). […] Routine animal care and assurance of welfare were as described above.
Human KMS-11-luc multiple myeloma cells were obtained from the laboratory of Suzanne Trudel at the University of Toronto (Ontario, Canada) and tested to be free of Mycoplasma sp. and murine viruses in the IMPACT1 PCR assay panel (RADIL, University of Missouri, Columbia, Mo.). Prior to our receiving this cell line, it had been stably engineered to express luciferase by retroviral transfection of the pGC-gfp/luc vector. KMS-11-luc cells were grown in Iscove's medium supplemented with 2 mmol/L L-glutamine (Mediatech, Inc., Hemdon, Va.) and 10% fetal bovine serum (JRH Biosciences, catalog #12003-1000M). These cells were grown as suspension cultures, maintained at 37° C. in a humidified atmosphere containing 5% carbon dioxide. Cells were cultured for fewer than 10 passages prior to use. Cells were harvested at approximately 2 million cells/mL, and centrifuged at ˜800×g for 5 minutes at 4° C. and then resuspended in a 1:1 mixture of cold Hank's balanced salt solution (HBSS) and Matrigel™ (Mediatech Inc., catalog #21-021-CV; BD Biosciences, catalog #354234, respectively) at a concentration of 50 million cells/mL for implantation subcutaneously (injection volume of 0.2 mL). Alternatively, for the disseminated disease model, cells were prepared only in cold HBSS at a concentration of 100 million cells/mL for intravenous (i.v.) implantation via the tail vein (injection volume of 0.1 mL).
Compound IIa and SB-715992 (free base) were formulated in 20% Captisol for a dose volume of 8 mL/kg. Doses were adjusted to each animal's body weight.
For the efficacy evaluation in the disseminated disease model, 10 million cells in HBSS were injected i.v. via the tail vein in a total volume of […]. Forty mice were randomized and enrolled on study 10 days post-implant, with a mean photon count in the leg bones (right+left) of approximately 9×10^5 photons/second, as determined by bioluminescence imaging. Approximately 10 minutes prior to imaging, mice were injected i.p. with 150 mg/kg luciferin (Xenogen Corporation, Alameda, Calif.), followed by anesthetization with isoflurane. Photon emission was measured using a charge coupled device camera in the IVIS imaging system (Xenogen Corporation). Briefly, a gray-scale image of the mice was captured, followed by an overlay of a bioluminescence map representing the spatial distribution of photons detected from cleaved luciferin in the cancer cells expressing luciferase. Signal intensity was quantified using a customized version of the IGOR Pro version 4.09A Software (WaveMetrics, Inc., Lake Oswego, Oreg.) called Living Image version 2.50.2 (Xenogen). The sum of all detected photon counts from the right+left legs were determined. Bioluminescence of cancer cells in the animals was measured by imaging on designated days until the first mice developed hind limb paralysis due to disease burden, the main end point for when to humanely euthanize mice. The day of euthanasia for each mouse was recorded, and the remaining percentage of mice surviving was plotted over time (Kaplan-Meier survival analysis). P values were calculated using the log-rank test (GraphPad Prism 4.0 software) to assess differences between treated and control groups (p<0.05 was considered significant). […] Data analysis was as described above.

CC(C)(C)[C@H](c1nc(-c2cc(F)ccc2F)cn1Cc1ccccc1)N(CC[C@H](N)CF)C(=O)CO [Compound IIa]
Differential vs mean Log(GI50) (K562): 0.210
GI50 (K562; GI50 in nM, read-out: Log(GI50) (converted)): 0.209 nM
GI50 (K562; read-out: GI50): 0.21 nM
T/C, Day 13 (%) ([1]; 0.25 mg/kg, q4d × 3, i.v): 15%
Δ Tumor Bioluminescence, Day 13 ([1]; 0.25 mg/kg, q4d × 3, i.v): 2.2 × 10^7 ± 1.1 × 10^6 photons/sec
Mean Day of Survival ([1]; 0.25 mg/kg, q4d × 3, i.v., listed as COMPOUND IIa): 29** day
Mean Day of Survival ([1]; 0.25 mg/kg, q4d × 3, i.v., listed as compound IIa): 29 days
T/C, Day 13 (%) ([1]; 0.5 mg/kg, q4d × 3, i.v): 0.7* %
Δ Tumor Bioluminescence, Day 13 ([1]; 0.5 mg/kg, q4d × 3, i.v): 1.1 × 10^6 ± 5.8 × 10^5 photons/sec
Mean Day of Survival ([1]; 0.5 mg/kg, q4d × 3, i.v., listed as COMPOUND IIa): 35** day
Mean Day of Survival ([1]; 0.5 mg/kg, q4d × 3, i.v., listed as compound IIa): 35 days
Regression, Day 13 (%) ([1]; 1 mg/kg, q4d × 3, i.v.): 47%
Δ Tumor Bioluminescence, Day 13 ([1]; 1 mg/kg, q4d × 3, i.v.): −4.3 × 10^5 ± 1.7 × 10^5 photons/sec
Mean Day of Survival ([1]; 1 mg/kg, q4d × 3, i.v., listed as COMPOUND IIa): 52** day
Mean Day of Survival ([1]; 1 mg/kg, q4d × 3, i.v., listed as compound IIa): 52 days
